Where two headings read alike, the source gives them in different places.
Legend:
[1] = tested on: Mnk1 and 2, peIF4E, eIF4E and cPARP; assay: Western blot of lysates from MCF-7, MDA-MB-231 and MDA-MB-468 cells; assay type: cell-based, human; details: MCF-7, MDA-MB-231, MDA-MB-468 cells, 24 hours
Source text: (§1) MCF-7, MDA-MB-231, MDA-MB-468 and SKBR-3 human breast cancer cells and LNCaP, PC-3, and CWR22Rv1 human prostate carcinoma cells (American Type Culture Collection, Manassas, Va., USA) were maintained in RPMI 1640 media (Gibco-Life Technologies, Grand Island, N.Y., USA) supplemented with 10% fetal bovine serum and 1% penicillin/streptomycin. Western blotting was done as mentioned previously,^8, 13b using the following antibodies: AR, Bad, Bax, Bcl-2, eIF4E, Mnk1, Mnk-2, N-cadherin, PARP, peIF4E^ser209 purchased from Cell Signaling Technology, Danvers, Mass., USA. Anti-Mnk2 was purchased from Sigma-Aldrich and normal rabbit IgG, cyclin D1 was from Santa Cruz Biotechnology, CA, USA.
As we previously reported, the anti-proliferative effects of the 1st generation MNKDAs in BC cells was due to degradation of Mnk1/2 with subsequent depletion of peIF4E and induction of apoptosis.^8a To determine if these compounds modulate Mnk1/2 and related oncogenic proteins, the inventors performed western blot of lysates from MCF-7, MDA-MB-231 and MDA-MB-468 human breast cancer cells treated with Compounds 16, 20, and 22, or with vehicle (DMSO, negative control), or Compound 6 (positive control). Equal protein concentrations from MCF-7 (FIG. 3A), MDA-MB-231 (FIG. 3B) and MDA-MB-468 (FIG. 3C) cells treated for 24 hours with Compounds 16, 20 and 22 at the various concentrations as indicated and Compound 6 (20 μmol/L) were separated by SDS-PAGE and western blots probed with antibodies to Mnk1 and 2, peIF4E, eIF4E and cPARP. Vehicle treated cells were included as control and all blots were reprobed for GAPDH for loading control.

[2] = tested on: PC-3 cells; assay: Wound-healing assay, PC-3 cell migration; assay type: cell-based, human; details: 5 μM, 24 hours
Description: (§2) Wound healing assay and matrigel invasion assay were also conducted as described previously using highly metastatic PC-3 cells following treatment with 5 μM of RRs for 24 h.^8a,26
(§3) Based on previous studies with closely related compound,^8 the inhibitory effects of Compounds 16, 20 and 22 on cell migration were evaluated, using the human metastatic PC cell line, PC-3 by wound-healing assay. PC-3 cells (5×10^5 cells/well) were seeded on Boyden chamber, grown to confluence and scratches made at experimental tome zero. The cells were treated with indicated compounds (5 μM each) for 24 hours. Representative photomicrographs of initial and final wounds are shown at 100× magnification. […] At 24 hours after cell monolayers were wounded, control cells had completely filled in the scratched area.

[3] = tested on: CWR22Rv1 human prostate carcinoma cells; assay: MTT cell proliferation assay, CWR22Rv1; assay type: cell-based; details: SEM < 10%, read-out: GI50s CWR22Rv1
Source text: as §1
(§4) Cells were plated (2500 cells/well) in 96 well plates and treated with or without specified compounds as described previously.^8a, 12b
(§5) The clinically relevant retinoids, ATRA and 4-HPR and the Mnk inhibitor, cercosporamide were used as comparators in the assays.
(§6) The PC-3 cell line was the least sensitive to all the compounds tested.

[4] = tested on: MCF-7, MDA-MB-231, MDA-MB-468 and SKBR-3 human breast cancer cells; assay: MTT cell proliferation assay, four breast cancer cell lines together; assay type: cell-based; details: range across the four BC cell lines, read-out: GI50s, range over the BC cell lines
Source text: as §1, §4, §5

[5] = tested on: LNCaP human prostate carcinoma cells; assay: MTT cell proliferation assay, LNCaP; assay type: cell-based; details: SEM < 10%, read-out: GI50s LNCaP
Source text: as §1, §4, §5, §6

[6] = tested on: MDA-MB-468 human breast cancer cells; assay: MTT cell proliferation assay, MDA-MB-468; assay type: cell-based; details: MDA-MB-468 cells, SEM < 10%, read-out: GI50s MDA-MB-468
Source text: as §1, §4, §5

[7] = tested on: SKBR-3 human breast cancer cells; assay: MTT cell proliferation assay, SKBR-3; assay type: cell-based; details: SK-BR-3, SKBR-3 cells, SEM < 10%, read-out: GI50s SKBR-3
Source text: as §1, §4, §5

[8] = tested on: PC-3 human prostate carcinoma cells; assay: MTT cell proliferation assay, PC-3; assay type: cell-based; details: PC-3 cells, SEM < 10%, read-out: GI50s PC-3
Source text: as §1, §4, §5, §6

[9] = tested on: MDA-MB-231 human breast cancer cells; assay: MTT cell proliferation assay, MDA-MB-231; assay type: cell-based; details: MDA-MB-231 cells, SEM < 10%, read-out: GI50s MDA-MB-231
Source text: as §1, §4, §5

[10] = tested on: MCF-7 human breast cancer cells; assay: MTT cell proliferation assay, MCF-7; assay type: cell-based; details: Homo sapiens, MCF7; MCF-7 cells, MTT, SEM < 10%; read-out: GI50s MCF-7
Source text: as §1, §4, §5

[11] = tested on: fAR, Mnk1/2, peIF4E, cyclin D1 and cleaved PARP; assay: Western blot of lysates from LNCaP cells; assay type: cell-based, human; details: 0.6-20 μM, 24 hours
Source text: as §1
Equal protein concentrations from LNCaP cells treated with Compounds 16, 20 and 22 at different concentrations (0.6-20 μM) for 24 hours were separated by SDS-PAGE and western blots probed with antibodies to fAR, Mnk1/2, peIF4E, cyclin D1 and cleaved PARP. Vehicle treated cells were included as a control and all blots were reprobed for β-actin for loading control.

[12] = tested on: CWR22Rv1 human prostate carcinoma cells; details: previously reported in Ramamurthy V et al., read-out: GI50s CWR22Rv1; cited from earlier work
[13] = tested on: LNCaP human prostate carcinoma cells; details: previously reported in Ramamurthy V et al., read-out: GI50s LNCaP; cited from earlier work
[14] = tested on: MDA-MB-231 human breast cancer cells; details: MDA-MB-231 cells; previously reported in Ramalingam S, et al.; read-out: GI50s MDA-MB-231; cited from earlier work
[15] = tested on: PC-3 human prostate carcinoma cells; details: PC-3 cells; previously reported in Ramamurthy V et al.; read-out: GI50s PC-3; cited from earlier work
[16] = tested on: SKBR-3 human breast cancer cells; details: SKBR-3 cells; previously reported in Ramalingam S, et al.; read-out: GI50s SKBR-3; cited from earlier work
[17] = tested on: MDA-MB-468 human breast cancer cells; details: MDA-MB-468 cells; previously reported in Ramalingam S, et al.; read-out: GI50s MDA-MB-468; cited from earlier work
[18] = tested on: Mnk-1, peIF4E and their downstream targets; assay: Molecular analysis of MDA-MB-231 tumors; assay type: in vivo; details: MDA-MB-231 tumors from treated mice
Source text: To assess their in vivo mode of action, we evaluated the effects of Compounds 20 and 22 on Mnk-1, peIF4E and their downstream targets.

[19] = tested on: MDA-MB-231 xenograft tumors; assay: MDA-MB-231 anti-tumor efficacy study (xenograft); assay type: in vivo
Description: All animal studies were performed according to the guidelines and approval of the Animal Care Committee of the University of Maryland School of Medicine, Baltimore (UMB). Female Athymic Nude mice or male SCID (Charles Rivers Laboratories or UMB facilities) at 4-6 weeks of age were maintained in a pathogen-free environment. MDA-MB-231 (10×10^6) cells were subcutaneously implanted into Athymic Nude mice and CWR22Rv1 (1×10^6) cells into male SCID mice. Mice bearing established tumors (˜100 mm^3) were randomized into treatment groups of 6 and dosed with vehicle (40% β-cyclodexdrin in ddH2O), or compounds 20 and 22 (i.p., formulated in 40% β-cyclodexdrin in ddH2O, once daily, 5 days a week for 28 days).
The National Cancer Institute (NCI) criteria^23 were used to determine tumor growth efficacy of our compounds. Thus, percent test or treatment/control (% T/C), defined as the ratio of the median tumor volume for the treated group versus control group, was calculated as % T/C=[(median tumor volume of treated group at day 28)/(median tumor volume of control group at day 28)]×100.
Indeed, the two compounds were equipotent (FIG. 9A). […] Representative photos of the tumor-bearing mice in the control and the two treatment groups at termination of experiment (day 28) are presented in FIG. 9B.

[20] = tested on: MDA-MB-231 cells; assay: Wound-healing assay, MDA-MB-231 cell migration; assay type: cell-based, human; details: 5 μM, 24 h
Description: as §2
as §3, with “BC” for “PC”, “MDA-MB-231” for “PC-3”, “h.” for “hours.”

[21] = MDA-MB-231 xenograft mice, i.p. 20 mg/kg 5×/week over 28 days

Structure (SMILES)	expression of total eIF4E [1]	expressions of Mnk1, Mnk2 and peIF4E [1]	formation of c-PARP (apoptosis) [1]	migration of PC-3 cells [2]	IC50 [3]	IC50 [5]	IC50 [6]	IC50 [7]	IC50 [8]	IC50 [9]	IC50 [10]	cleaved PARP (c-PARP) [11]	cyclin D1 [11]	expression of total eIF4E [11]	expressions of fAR, Mnk1 and Mnk2 [11]	IC50 [14]	IC50 [16]	IC50 [17]	other results
CC1=C(/C=C/C(C)=C/C=C/C(C)=C\C(=O)Nc2ccccc2)C(C)(C)CCC1n1ccnc1 (centres unmarked) [Compound 16, (2Z,4E,6E,8E)-9-(3-(1H-imidazol-1-yl)-2,6,6-trimethylcyclohex-1-en-1-yl)-3,7-dimethyl-N-phenylnona-2,4,6,8-tetraenamide]	no noticeable effects	significantly and dose-dependently, reduced	dose-dependent formation of c-PARP	significantly inhibited migration	1280 nM	2690 nM	2540 nM	1730 nM	8910 nM	1740 nM	1900 nM	induced cleaved PARP	significant depletion	no noticeable effects	significantly and in a dose-dependent fashion, reduced				IC50 [4]: 1740 to 2540 nM
CC1=C(/C=C/C(C)=C/C=C/C(C)=C/C(=O)O)C(C)(C)CCC1 [ATRA, all-trans retinoic acid]																14100 nM	22900 nM	14100 nM	IC50 [12]: 25100 nM; IC50 [13]: 47900 nM; IC50 [15]: 36300 nM
CC(=O)C1=C(O)C=C2Oc3c(C(N)=O)c(O)cc(O)c3[C@]2(C)C1=O [Cerco., cercosporamide]																43600 nM	26000 nM	47900 nM	
CC1=C(/C=C/C(C)=C/C=C/C(C)=C\C(=O)NCc2ccc(O)cc2)C(C)(C)CCC1n1ccnc1 (centres unmarked) [Compound 22, (2Z,4E,6E,8E)-9-(3-(1H-imidazol-1-yl)-2,6,6-trimethylcyclohex-1-en-1-yl)-N-(4-hydroxybenzyl)-3,7-dimethylnona-2,4,6,8-tetraenamide]	no noticeable effects	significantly and dose-dependently, reduced	dose-dependent formation of c-PARP	significantly inhibited migration	1860 nM	1690 nM	2700 nM	2450 nM	3540 nM	2230 nM	160 nM	induced cleaved PARP	significant depletion	no noticeable effects	significantly and in a dose-dependent fashion, reduced				Mnk1/2, peIF4E, cyclin D1 and Bcl-2 in tumors [18]: depletion; pro-apoptotic proteins Bad and Bax in tumors [18]: up-regulation; body weight [19, 21]: did not lose body weight; signs of toxicity / adverse events [19, 21]: no apparent adverse events; suppression of tumor growth ([19]; MDA-MB-231 xenografts, i.p. 20 mg/kg 5×/week over 28 days): 85.4%; % T/C (treated/control median tumor volume) ([19]; MDA-MB-231 xenografts, i.p. 20 mg/kg 5×/week, day 28): 14.6%; migration of MDA-MB-231 cells [20]: significantly inhibited migration

From patent publication US10793525B2, “13-cis-RAMBA retinamides that degrade MNKs for treating cancer” (UNIVERSITY OF MARYLAND, BALTIMORE, priority 2014, dated 2020)
